Assay results published in PubChem BioAssay (NCI).
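The compound was tested at five concentrations on cells cultured in 96-well plates, with a 48-hour exposure period. TGI is the concentration that stops growth completely.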

Tests used:
Experiment in all cases: NCI anticancer screen, dose series, 48 h
786-0 renal = system: 786-0 renal
A498 renal = system: A498 renal
A549 NSCLC = system: A549 NSCLC
ACHN renal = system: ACHN renal
BT-549 breast = system: BT-549 breast
CAKI-1 renal = system: CAKI-1 renal
COLO 205 colon = system: COLO 205 colon
DU-145 prostate = system: DU-145 prostate
EKVX NSCLC = system: EKVX NSCLC
HCC-2998 colon = system: HCC-2998 colon
HCT-116 colon = system: HCT-116 colon
HCT-15 colon = system: HCT-15 colon
HL-60(TB) leukemia = system: HL-60(TB) leukemia
HOP-62 NSCLC = system: HOP-62 NSCLC
HOP-92 NSCLC = system: HOP-92 NSCLC
HS 578T breast = system: HS 578T breast
HT29 colon = system: HT29 colon
IGROV1 ovarian = system: IGROV1 ovarian
K-562 leukemia = system: K-562 leukemia
KM12 colon = system: KM12 colon
LOX IMVI melanoma = system: LOX IMVI melanoma
M14 melanoma = system: M14 melanoma
MALME-3M melanoma = system: MALME-3M melanoma
MCF7 breast = system: MCF7 breast
MDA-MB-231 breast = system: MDA-MB-231 breast
MDA-MB-435 = system: MDA-MB-435
MDA-N = system: MDA-N
MOLT-4 leukemia = system: MOLT-4 leukemia
NCI-H226 lung = system: NCI-H226 lung
NCI-H23 lung = system: NCI-H23 lung
NCI-H460 lung = system: NCI-H460 lung
NCI-H522 lung = system: NCI-H522 lung
NCI/ADR-RES ovarian = system: NCI/ADR-RES ovarian
OVCAR-3 ovarian = system: OVCAR-3 ovarian
OVCAR-4 ovarian = system: OVCAR-4 ovarian
OVCAR-5 ovarian = system: OVCAR-5 ovarian
OVCAR-8 ovarian = system: OVCAR-8 ovarian
PC-3 prostate = system: PC-3 prostate
RPMI-8226 leukemia = system: RPMI-8226 leukemia
RXF 393 renal = system: RXF 393 renal
SF-268 CNS = system: SF-268 CNS
SF-295 CNS = system: SF-295 CNS
SF-539 CNS = system: SF-539 CNS
SK-MEL-2 melanoma = system: SK-MEL-2 melanoma
SK-MEL-28 melanoma = system: SK-MEL-28 melanoma
SK-MEL-5 melanoma = system: SK-MEL-5 melanoma
SK-OV-3 ovarian = system: SK-OV-3 ovarian
SN12C renal = system: SN12C renal
SNB-19 CNS = system: SNB-19 CNS
SNB-75 CNS = system: SNB-75 CNS
SR leukemia = system: SR leukemia
SW-620 colon = system: SW-620 colon
T-47D breast = system: T-47D breast
TK-10 renal = system: TK-10 renal
U251 CNS = system: U251 CNS
UACC-257 melanoma = system: UACC-257 melanoma
UACC-62 melanoma = system: UACC-62 melanoma
UO-31 renal = system: UO-31 renal

Measured: TGI

c1cncc(-c2cc(-c3cc(-c4cccnc4)n[nH]3)[nH]n2)c1
> 100 µM: 786-0 renal | A498 renal | A549 NSCLC | ACHN renal | BT-549 breast | CAKI-1 renal | COLO 205 colon | DU-145 prostate | EKVX NSCLC | HCC-2998 colon | HCT-116 colon | HCT-15 colon | HL-60(TB) leukemia | HOP-62 NSCLC | HOP-92 NSCLC | HS 578T breast | HT29 colon | IGROV1 ovarian | K-562 leukemia | KM12 colon | LOX IMVI melanoma | M14 melanoma | MALME-3M melanoma | MCF7 breast | MDA-MB-231 breast | MDA-MB-435 | MDA-N | MOLT-4 leukemia | NCI-H226 lung | NCI-H23 lung | NCI-H460 lung | NCI-H522 lung | NCI/ADR-RES ovarian | OVCAR-3 ovarian | OVCAR-4 ovarian | OVCAR-5 ovarian | OVCAR-8 ovarian | PC-3 prostate | RPMI-8226 leukemia | RXF 393 renal | SF-268 CNS | SF-295 CNS | SF-539 CNS | SK-MEL-2 melanoma | SK-MEL-28 melanoma | SK-MEL-5 melanoma | SK-OV-3 ovarian | SN12C renal | SNB-19 CNS | SNB-75 CNS | SR leukemia | SW-620 colon | T-47D breast | TK-10 renal | U251 CNS | UACC-257 melanoma | UACC-62 melanoma | UO-31 renal
